Structures can show the parent of a compound that is named as a salt.
Row | melting point [°C] | Structure (SMILES)
1 | 135 to 136 | CC(C)OC(=O)c1ccc(N2C[C@@H](C)N(CC(=O)N3CCc4nn(-c5ccccc5)cc4C3)[C@@H](C)C2)nc1 [compound 98, 6-{(3S,5R)-3,5-dimethyl-4-[2-oxo-2-(2-phenyl-2,4,6,7-tetrahydropyrazolo[4,3-c]pyridin-5-yl)ethyl]piperazin-1-yl}nicotinic acid isopropyl ester]
2 | 70 to 71 | Cn1cc2c(n1)CCN(C(=O)CN1CC3CCC(C1)N3c1ccc(C(F)(F)F)cn1)C2
3 | 240 to 242 | O=C(CN1CC2CCC(C1)N2c1ncc(F)cn1)N1CCc2cc(-c3ccccc3)[nH]c2C1
4 | 165 to 167 | O=C(CN1CC2CCC(C1)N2c1ncc(F)cn1)N1CCc2cc(-c3ccccc3)oc2C1
5 | 122 to 123 | O=C(CN1CC2CCC(C1)N2c1ncc(F)cn1)N1CCc2n[nH]cc2C1
6 | 215 to 218 | O=C(CN1CC2CCC(C1)N2c1ccc(-c2noc(=O)[nH]2)cn1)N1CCc2nc(-c3ccccc3)sc2C1
7 | 220 to 221 | C[C@@H]1CN(CC(=O)N2CCc3nc(-c4ccccc4)sc3C2)[C@@H](C)CN1c1ccc(C(=O)O)cn1 [compound 63, 6-{(2R,5S)-2,5-dimethyl-4-[2-oxo-2-(2-phenyl-6,7-dihydro-4H-thiazolo[5,4-c]pyridin-5-yl)ethyl]piperazin-1-yl}nicotinic acid]
8 | 150 to 151 | C[C@@H]1CN(c2ccc(C(=O)O)cn2)C[C@H](C)N1CC(=O)N1CCc2c(cnn2C(C)(C)C)C1 [compound 93, 6-{(3S,5R)-4-[2-(1-tert-butyl-1,4,6,7-tetrahydropyrazolo[4,3-c]pyridin-5-yl)-2-oxoethyl]-3,5-dimethylpiperazin-1-yl}nicotinic acid]
9 | 150 to 151 | O=C(CN1CC2CCC(C1)N2c1cccnc1)N1CCc2nn(-c3ccc(C(F)(F)F)cn3)cc2C1
10 | 269 to 272 | C[C@@H]1CN(c2ncc(C(=O)O)cn2)C[C@H](C)N1CC(=O)N1CCc2nc(-c3ccccc3)sc2C1 (as salt: sodium) [compound 72, 2-{(3S,5R)-3,5-dimethyl-4-[2-oxo-2-(2-phenyl-6,7-dihydro-4H-thiazolo[5,4-c]pyridin-5-yl)ethyl]piperazin-1-yl}pyrimidine-5-carboxylic acid]
11 | 139 to 140 | O=C(CN1CCN(c2ccc(C(F)(F)F)cn2)C(=O)C1)N1CCc2nn(-c3ccccn3)cc2C1 [compound 119, 4-[2-oxo-2-(2-pyridin-2-yl-2,4,6,7-tetrahydropyrazolo[4,3-c]pyridin-5-yl)ethyl]-1-(5-trifluoromethylpyridin-2-yl)piperazin-2-one]
12 | 162 | C[C@@H]1CN(c2ccc(C(F)(F)F)cn2)C[C@H](C)N1CC(=O)N1CCc2cc(-c3ccccc3)oc2C1 [compound 97, 2-[(2S,6R)-2,6-dimethyl-4-(5-trifluoromethylpyridin-2-yl)piperazin-1-yl]-1-(2-phenyl-4,7-dihydro-5H-furano[2,3-c]pyridin-6-yl)ethanone]
13 | 262 to 264 | O=C(O)c1ccc(N2C3CCC2CN(CC(=O)N2CCc4nc(-c5ccsc5)sc4C2)C3)nc1
14 | 166 to 167 | C[C@@H]1CN(c2cncnc2)C[C@H](C)N1CC(=O)N1CCc2nn(-c3ccccc3)cc2C1 (as salt: HCl) [compound 16, 2-((2S,6R)-2,6-dimethyl-4-pyrimidin-5-yl-piperazin-1-yl)-1-(2-phenyl-2,4,6,7-tetrahydropyrazolo[4,3-c]pyridin-5-yl)ethanone]
15 | 200 to 202 | O=C(CN1CC2CCC(C1)N2c1ncc(F)cn1)N1CCc2nc(-c3cccnc3)sc2C1
16 | 151 to 153 | C[C@@H]1CN(c2ccc(C(F)(F)F)cn2)C[C@H](C)N1CC(=O)N1CCc2nn(CC(F)(F)F)cc2C1 (as salt: oxalate) [compound 126, 2-[(2S,6R)-2,6-dimethyl-4-(5-trifluoromethylpyridin-2-yl)piperazin-1-yl]-1-[2-(2,2,2-trifluoroethyl)-2,4,6,7-tetrahydropyrazolo[4,3-c]pyridin-5-yl]ethanone]
17 | 130 to 132 | O=C(CN1CC2CCC(C1)N2c1ncc(F)cn1)N1CCc2nc(-c3ccccc3)[nH]c2C1
18 | 230 to 231 | Cn1nnc(-c2ccc(N3C4CCC3CN(CC(=O)N3CCc5nn(-c6ccccc6)cc5C3)C4)nc2)n1
19 | 157 to 158 | COC(=O)c1ccc(N2CC3CCC(C2)N3CC(=O)N2CCc3nn(-c4ccccc4)cc3C2)nc1

Row | melting point [°C] | Structure (SMILES)
20 | 134 to 135 | COC(=O)c1ccc(N2C[C@@H](C)N(CC(=O)N3CCc4c(cnn4C(C)(C)C)C3)[C@@H](C)C2)nc1 [compound 92, 6-{(3S,5R)-4-[2-(1-tert-butyl-1,4,6,7-tetrahydropyrazolo[4,3-c]pyridin-5-yl)-2-oxoethyl]-3,5-dimethylpiperazin-1-yl}nicotinic acid methyl ester]
21 | 174 to 175 | C[C@@H]1CN(c2ncc(F)cn2)C[C@H](C)N1CC(=O)N1CCc2nn(-c3ccccc3)cc2C1 [compound 17, 2-[(2S,6R)-4-(5-fluoropyrimidin-2-yl)-2,6-dimethylpiperazin-1-yl]-1-(2-phenyl-2,4,6,7-tetrahydropyrazolo[4,3-c]pyridin-5-yl)ethanone]
22 | 176 to 179 | O=C(CN1CC2CCC(C1)N2c1ccc(-c2noc(=O)[nH]2)cn1)N1CCc2nn(-c3ccccc3)cc2C1
23 | 163 to 164 | C[C@@H]1CN(c2cccnc2)C[C@H](C)N1CC(=O)N1CCc2nn(-c3ccncc3)cc2C1 [compound 141, 2-((2S,6R)-2,6-dimethyl-4-pyridin-3-ylpiperazin-1-yl)-1-(2-pyridin-4-yl-2,4,6,7-tetrahydropyrazolo[4,3-c]pyridin-5-yl)ethanone]
24 | 179 to 180 | O=C(CN1CCN(c2ccc(C(F)(F)F)cn2)C(=O)C1)N1CCc2nc(-c3ccsc3)sc2C1 [compound 42, 4-[2-oxo-2-(2-thiophen-3-yl-6,7-dihydro-4H-thiazolo[5,4-c]pyridin-5-yl)ethyl]-1-(5-trifluoromethylpyridin-2-yl)piperazin-2-one]
25 | 142 to 143 | CC(C)(C)n1ncc2c1CCN(C(=O)CN1CC3CCC(C1)N3c1ncc(F)cn1)C2
26 | 191 to 192 | COC(=O)c1ccc(N2CCN(CC(=O)N3CCc4nc(-c5ccccc5)sc4C3)CC2=O)nc1 [compound 25, 6-{2-oxo-4-[2-oxo-2-(2-phenyl-6,7-dihydro-4H-thiazolo[5,4-c]pyridin-5-yl)ethyl]piperazin-1-yl}nicotinic acid methyl ester]
27 | 196 to 197 | C[C@@H]1CN(c2cccnc2)C[C@H](C)N1CC(=O)N1CCc2nn(-c3ccc(C(F)(F)F)cn3)cc2C1 [compound 143, 2-((2S,6R)-2,6-dimethyl-4-pyridin-3-ylpiperazin-1-yl)-1-[2-(5-trifluoromethylpyridin-2-yl)-2,4,6,7-tetrahydropyrazolo[4,3-c]pyridin-5-yl]ethanone]
28 | 209 to 211 | C[C@@H]1CN(c2ccc(C(=O)O)cn2)C[C@H](C)N1CC(=O)N1CCc2nn(-c3ccccc3)cc2C1 (as salt: HCl) [compound 21, 6-{(3S,5R)-3,5-dimethyl-4-[2-oxo-2-(2-phenyl-2,4,6,7-tetrahydropyrazolo[4,3-c]pyridin-5-yl)ethyl]piperazin-1-yl}nicotinic acid]
29 | 197 to 198 | O=C(CN1CC2CCC(C1)N2c1cncnc1)N1CCc2nn(-c3ccccc3)cc2C1
30 | 140 to 142 | O=C(CN1CCN(c2ccc(C(F)(F)F)cn2)C(=O)C1)N1CCc2sc(-c3ccccc3)nc2C1 [compound 82, 4-[2-oxo-2-(2-phenyl-6,7-dihydro-4H-thiazolo[4,5-c]pyridin-5-yl)ethyl]-1-(5-trifluoromethylpyridin-2-yl)piperazin-2-one]
31 | 100 to 101 | O=C(CN1CCN(c2ccnc3cc(Cl)ccc23)CC1)N1CCc2nn(-c3ccccc3)cc2C1 [compound 113, 2-[4-(7-chloroquinolin-4-yl)piperazin-1-yl]-1-(2-phenyl-2,4,6,7-tetrahydropyrazolo[4,3-c]pyridin-5-yl)ethanone]
32 | 61 to 62 | O=C(CN1CC2CCC(C1)N2c1cccnc1)N1CCc2nn(-c3ccccn3)cc2C1
33 | 150 to 151 | C[C@@H]1CN(c2cnccn2)C[C@H](C)N1CC(=O)N1CCc2nn(-c3ccc(C(F)(F)F)cn3)cc2C1 [compound 111, 2-((3S,5R)-3,5-dimethyl-2,3,5,6-tetrahydro[1,2′]bipyrazinyl-4-yl)-1-[2-(5-trifluoromethylpyridin-2-yl)-2,4,6,7-tetrahydropyrazolo[4,3-c]pyridin-5-yl]ethanone]
34 | 183 to 185 | O=C(CN1CC2CCC(C1)N2c1ccc(C(F)(F)F)cn1)N1CCc2nc(-c3ccncc3)sc2C1
35 | 150 to 152 | O=C(CN1CC2CCC(C1)N2c1ccc(C(F)(F)F)cn1)N1CCc2nc(-c3ccccc3)[nH]c2C1
36 | 94 to 97 | C[C@@H]1CN(c2ncc(C(=O)O)cn2)C[C@H](C)N1CC(=O)N1CCc2nn(-c3ccccc3)cc2C1 [compound 75, 2-{(3S,5R)-3,5-dimethyl-4-[2-oxo-2-(2-phenyl-2,4,6,7-tetrahydropyrazolo[4,3-c]pyridin-5-yl)ethyl]piperazin-1-yl}pyrimidine-5-carboxylic acid]
37 | 120 to 121 | C[C@@H]1CN(c2ccc(C(=O)O)cn2)C[C@H](C)N1CC(=O)N1CCc2nn(C(C)(C)C)cc2C1 [compound 105, 6-{(3S,5R)-4-[2-(2-tert-butyl-2,4,6,7-tetrahydropyrazolo[4,3-c]pyridin-5-yl)-2-oxoethyl]-3,5-dimethylpiperazin-1-yl}nicotinic acid]
38 | 210 to 212 | COC(=O)c1ccc(N2C[C@@H](C)N(CC(=O)N3CCc4nn(-c5ccccc5)cc4C3)[C@@H](C)C2)nc1 (as salt: HCl) [compound 23, 6-{(3S,5R)-3,5-dimethyl-4-[2-oxo-2-(2-phenyl-2,4,6,7-tetrahydropyrazolo[4,3-c]pyridin-5-yl)ethyl]piperazin-1-yl}nicotinic acid methyl ester]
